# Measurements as given in US7745161B2, “Amplification of enzymatic reactions for use with an enthalpy array” (Palo Alto Research Center Incorporated, priority 2003, dated 2010).
# Biological target: T1, GPCR P2Y6 receptor complex (Homo sapiens, UniProt Q15077)
# T1 construct: made in house; host or cells: baculovirus-inoculated insect cell (membrane fragments)
# Experiment: Nanocalorimetry measurement of agonist binding to a GPCR, amplified by G-protein hydrolysis of GTP
# Type: biochemical
# Details: after merging [UDP]=0.4 mM, [GTP]=1.15 mM
# Description: We have measured reactions involving agonist binding to a GPCR (G-protein coupled receptor), at low GPCR concentration, by using the associated G-protein hydrolysis of GTP as the source of the amplified heat of reaction. Most of the heat in this example is from GTP hydrolysis by G-proteins activated by a GPCR with a bound agonist. GPCRs are transmembrane proteins that bind […] (e.g. agonist or inhibitor) on the extracellular side and, upon receptor binding, cause a G-protein (also a membrane protein) on the intracellular side to exchange GDP for GTP. After binding GTP, the G-protein dissociates from the GPCR, and the α subunit dissociates from the β-γ complex. The α subunit and β-γ complex can then migrate independently along the membrane and interact with targets.
# Explaining this measurement in terms of FIG. 2A, the GPCR is the primary enzyme 44. We refer to the GPCR as an enzyme because it catalyzes the exchange of GDP for GTP on the G-protein and the subsequent dissociation of the α subunit of the G-protein from the β-γ complex. The G-protein before the GDP-GTP exchange and dissociation can be considered the substrate 40. The GPCR is also […], and as such it is activated in this example by binding of agonist, which is therefore an activator 42. The products 46 of the primary enzymatic reaction are the α subunit and β-γ complex of the dissociated G-protein. […]
# T1 sequence (Q15077 whole entry, the tested form may be a part, one chain of several): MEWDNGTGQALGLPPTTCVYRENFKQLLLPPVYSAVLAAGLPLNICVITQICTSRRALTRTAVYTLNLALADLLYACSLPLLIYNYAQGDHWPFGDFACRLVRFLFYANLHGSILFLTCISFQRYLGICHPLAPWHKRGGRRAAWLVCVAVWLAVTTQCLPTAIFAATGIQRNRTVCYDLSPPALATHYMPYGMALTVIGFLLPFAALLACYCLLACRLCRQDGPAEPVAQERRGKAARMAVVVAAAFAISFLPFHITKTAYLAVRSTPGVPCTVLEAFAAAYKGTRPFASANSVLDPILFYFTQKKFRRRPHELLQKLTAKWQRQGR
smiles,measurement,setting,value
O=c1ccn([C@@H]2O[C@H](COP(=O)(O)OP(=O)(O)O)[C@@H](O)[C@H]2O)c(=O)[nH]1 [UDP],nanocalorimeter signal magnitude (differential temperature),"fragmented membranes with over-expressed P2Y6, 1 mg/ml total protein, 250 nL drops",1.2 m° C.
same,duration of nanocalorimeter signal after the drops are merged,fragmented membranes with over-expressed P2Y6,1 to 2 s
